Entries after “also recorded” stand apart in the source; their conditions may differ.
Columns and labels:
[1] = test system: 4T1.2 cells; experiment: Western blot analysis; format: cell-based, mouse; conditions: 4T1.2 cells, OAC2 treatment
Method: Western blot analysis. Cultured cells were lysed in a radio-immunoprecipitation assay (RIPA) buffer and proteins were fractionated by 10-15% SDS gels and electro-transferred to polyvinylidene difluoride (PVDF) transfer membranes (Millipore, Billerica, MA, USA). The membrane was incubated overnight with primary antibodies and then with secondary antibodies conjugated with horseradish peroxidase (Cell Signaling, Danvers, MA, USA). Antibodies against c-Myc, Oct4, Sox2, Klf4, Lrp5, Runx2, Snail, TGFβ, Eno1, Eef2, vinculin (Cell Signaling, Danvers, MA, USA), MMP9, NFATc1, cathepsin K (Santa Cruz, Dallas, TX, USA), TRAIL (Novus, Centennial, CO, USA), p53 (Invitrogen, Carlsbad, CA, USA), Hsp90ab1 (Abcam, Cambridge, UK), Kdm3a (Thermo-Fisher Scientific, Waltham, MA, USA) and β-actin as a control (Sigma, St. Louis, MO, USA) were employed. The level of proteins was determined using a SUPERSIGNAL™ west femto maximum sensitivity substrate (Thermo-Fisher Scientific, Waltham, MA, USA), and a luminescent image analyzer (LAS-3000, Fuji Film, Tokyo, Japan) was used to quantify signal intensities.

[2] = test system: 4T1.2 cells; experiment: MTT-based viability; format: cell-based, mouse; conditions: 1 to 5 μM OAC2
[3] = test system: 4T1.2 cells; experiment: Mouse model of a mammary tumor; format: in vivo; conditions: BALB/c mice, daily intraperitoneal injection of 10 mg/kg OAC2
[4] = test system: EO771 mammary tumor cells; experiment: EdU assay; format: cell-based, mouse; conditions: inhibitor applied with iTS CM
Method: EdU assays. Two thousand cells were seeded in 96-well plates on day 1, CM was added on day 2, and cellular proliferation was examined using a fluorescence-based cell proliferation kit (CLICK-IT™ EdU ALEXA FLUOR™ 488 Imaging Kit; Thermo-Fisher, Waltham, MA, USA). After fluorescent labeling, the number of fluorescently labeled cells were counted and the ratio to the total number of cells was determined.
EdU assay. Using a procedure previously reported, approximately 1,000 cells were seeded in 96-well plates on day 1. CM was added on day 2 and cellular proliferation was examined with a fluorescence-based cell proliferation kit (CLICK-IT™ EdU ALEXA FLUOR™ 488 Imaging Kit; Thermo-Fisher, Waltham, MA, USA) on day 4. After fluorescent labeling, the number of fluorescently labeled cells was counted and the ratio to the total number of cells was determined.

[5] = test system: EO771 mammary tumor cells; experiment: TRANSWELL invasion assay; format: cell-based, mouse; conditions: inhibitor applied with iTS CM
Method: Invasion assay. The invasion capacity of cancer cells was determined using a 24-well plate, TRANSWELL® chambers (Thermo Fisher Scientific, Waltham, MA, USA) with […] pore size and MATRIGEL™. Cell invasion was measured in TRANSWELL® chambers with a coating including MATRIGEL™ (100 μg/ml). The cells in 200 μL serum-free DMEM were placed on the upper chamber and 800 μL iTS CM was added in the lower chamber. After 24 h, the cells that had invaded the lower side of the membrane were stained with Crystal Violet. At least five randomly chosen images were taken under a microscope, and the average number of stained cells that represented the relative invasion was determined.

[6] = test system: human breast cancer and prostate cancer tissues; experiment: Ex vivo tissue assay; format: cell-based; conditions: breast (ER-positive and -negative) and prostate cancer tissue
Method: Ex vivo tissue assay. The usage of human breast cancer and prostate cancer tissues was approved by the Indiana University Institutional Review Board. Two human breast cancer tissues (˜1 g each; estrogen receptor-positive and -negative) and prostate cancer tissue (˜1 g), received from Simon Cancer Center Tissue Procurement Core, were manually fragmented with a scalpel into small pieces (0.5˜0.8 mm in length). These pieces were grown in DMEM with 10% fetal bovine serum and antibiotics for a day. iTS cell-derived conditioned medium was then added for three additional days, and a change in the fragment size was determined. BML284 (10 μM) or β-catenin (40 ng/μ1) was applied to tissue fragments and CM was prepared as described above.

[7] = test system: EO771 cells; experiment: Mouse model of mammary tumors; format: in vivo; conditions: EO771 cells in mammary fat pad
Source text: (§1) Animal models. The experimental procedures using animals were approved by the Indiana University Animal Care and Use Committee and were complied with the Guiding Principles in the Care and Use of Animals endorsed by the American Physiological Society. Mice were housed five per cage and provided with mouse chow and water ad libitum. In the mouse model of mammary tumors, C57BL/6 female mice (˜8 weeks, Envigo RMS, Inc., Indianapolis, IN, USA) were randomly assigned into five groups (14 mice per group). The placebo groups received cells transfected with a negative control vector, and the negative control group received cells transfected with β-catenin overexpression vector. The three treatment groups received β-catenin overexpressing iTS CM, BML-treated cells, and BML-treated iTS CM. Each group received a subcutaneous injection of EO771 cells (3.0×10^5 cells in 50 μl PBS) to the mammary fat pad. For tibial osteolysis, C57BL/6 female mice (8 mice per group) received an intra-tibial injection of EO771 cells (2.5×10^5 cells in 20 μl PBS) to the right tibia. The treatment group received iTS cell-derived CM as an injection into the intraperitoneal cavity. The animals were sacrificed on day 18, and the weight of each tumor was measured. To evaluate the effects of CMs for tumor invasion, an in vivo extravasation assay was conducted. […]

[8] = test system: EO771 cells; experiment: In vivo extravasation assay; set-up: species or system mouse; conditions: EO771 cells via tail vein
Source text: as §1

O=C(Nc1ccc2[nH]ccc2c1)c1ccccc1 [OAC2]
Oct4 level [1]: Elevation | MTT-based viability / proliferation of tumor cells, direct application [2]: did not alter; also recorded: No detectable change | size of mammary tumors / progression of tumors, direct administration [3]: did not alter; also recorded: No detectable change

Nc1cccc2c1C(=O)N(C1CCC(=O)NC1=O)C2=O (centres unmarked) [Pomalidomide]
inhibitory effect of β-catenin-overexpressing iTS CM on proliferation [4]: interfered with the inhibitory effect | inhibitory effect of β-catenin-overexpressing iTS CM on invasion [5]: interfered with the inhibitory effect

COc1cccc(-c2cc(NCc3ccc4c(c3)OCO4)nc(N)n2)c1 [BML284]
size of cancer tissue fragments [6]: modestly increased | tumor weight [7]: Increase | number of tumor cells in the lung [8]: Increase

Reference: patent publication US20240082313A1, “PHARMACEUTICAL COMPOSITIONS AND THEIR METHODS OF USE” (The Trustees of Indiana University, priority 2021, published 2024)
